# Reference: ChEMBL document CHEMBL1133119, “Synthesis of apicidin-derived quinolone derivatives: parasite-selective histone deacetylase inhibitors and antiproliferative agents” (J Med Chem, 2000)
# Tests used:
# [1] = target: Histone deacetylase (Eimeria tenella); assay: Displacement of [3H]-Apicidin A from Histone deacetylase of Eimeria tenella extract
# [2] = Tested for parasite (malaria)-based antiproliferative assay; type: functional
# Histone deacetylase [3] = assay: Inhibition of [3H]-Apicidin A binding to Histone deacetylase of chick liver extract; design: species or system Gallus gallus
# HeLa = assay: Tested for mammalian cell (HeLa)-based antiproliferative assay; type: functional, Homo sapiens
# Histone deacetylase [4] = assay: Tested for Histone deacetylase enzyme inhibition assay using mammalian cell nuclear extract (HeLa); type: protein assay, Homo sapiens
# [5] = Tested for parasite (malaria)-based antiproliferative assay; ND means no data; type: functional
Compound,IC50 [1] [nM],IC50 [2] [µg/mL],IC50 (Histone deacetylase [3]) [µg/mL],AP50 (HeLa) [ng/mL],IC50 (Histone deacetylase [4]) [nM],IC50 [5] [µg/mL]
CCC(=O)CCCCC[C@@H]1NC(=O)[C@H]2CCCCN2C(=O)[C@H]([C@@H](C)CC)NC(=O)[C@H](c2cn(CC(=O)OC)c3ccccc3c2=O)NC1=O [listing 1 of 2 here],441,0.79,2,,,
CCC(=O)CCCCC[C@@H]1NC(=O)[C@H]2CCCCN2C(=O)[C@H]([C@@H](C)CC)NC(=O)[C@H](c2cn(CC(=O)OC)c3ccccc3c2=O)NC1=O [listing 2 of 2 here],,,,>10000,,
CCC(=O)CCCCC[C@@H]1NC(=O)[C@H]2CCCCN2C(=O)[C@H]([C@@H](C)CC)NC(=O)[C@H](c2cn(C)c3ccccc3c2=O)NC1=O [listing 1 of 2 here],96.5,0.117,1,,241,
CCC(=O)CCCCC[C@@H]1NC(=O)[C@H]2CCCCN2C(=O)[C@H]([C@@H](C)CC)NC(=O)[C@H](c2cn(C)c3ccccc3c2=O)NC1=O [listing 2 of 2 here],,,,>10000,,
CCC(=O)CCCCC[C@@H]1NC(=O)[C@H]2CCCCN2C(=O)[C@H]([C@@H](C)CC)NC(=O)[C@H](Cc2cn(CC(=O)OC)c3ccccc23)NC1=O [listing 1 of 2 here],10.5,0.25,0.005,,,
CCC(=O)CCCCC[C@@H]1NC(=O)[C@H]2CCCCN2C(=O)[C@H]([C@@H](C)CC)NC(=O)[C@H](Cc2cn(CC(=O)OC)c3ccccc23)NC1=O [listing 2 of 2 here],,,,150,,
CCCn1cc(C[C@@H]2NC(=O)[C@H](CCCCCC(=O)CC)NC(=O)[C@H]3CCCCN3C(=O)[C@H]([C@@H](C)CC)NC2=O)c2ccccc21 [listing 1 of 2 here],47.2,0.25,0.01,,,
CCCn1cc(C[C@@H]2NC(=O)[C@H](CCCCCC(=O)CC)NC(=O)[C@H]3CCCCN3C(=O)[C@H]([C@@H](C)CC)NC2=O)c2ccccc21 [listing 2 of 2 here],,,,625,,
CCCn1cc([C@@H]2NC(=O)[C@H](CCCCCC(=O)CC)NC(=O)[C@H]3CCCCN3C(=O)[C@H]([C@@H](C)CC)NC2=O)c(=O)c2ccccc21 [listing 1 of 2 here],192,0.44,0.7,,230,
CCCn1cc([C@@H]2NC(=O)[C@H](CCCCCC(=O)CC)NC(=O)[C@H]3CCCCN3C(=O)[C@H]([C@@H](C)CC)NC2=O)c(=O)c2ccccc21 [listing 2 of 2 here],,,,>10000,,
CCC(=O)CCCCC[C@@H]1NC(=O)[C@H]2CCCCN2C(=O)[C@H]([C@@H](C)CC)NC(=O)[C@H](c2cn(CC(=O)O)c3ccccc3c2=O)NC1=O [listing 1 of 2 here],3000,0.55,5,,,
CCC(=O)CCCCC[C@@H]1NC(=O)[C@H]2CCCCN2C(=O)[C@H]([C@@H](C)CC)NC(=O)[C@H](c2cn(CC(=O)O)c3ccccc3c2=O)NC1=O [listing 2 of 2 here],,,,>10000,,
CCC(=O)CCCCC[C@@H]1NC(=O)[C@H]2CCCCN2C(=O)[C@H]([C@@H](C)CC)NC(=O)[C@H](c2cnc3ccccc3c2O)NC1=O,24.7,0.04,1,>10000,,
CCC(=O)CCCCC[C@@H]1NC(=O)[C@H]2CCCCN2C(=O)[C@H]([C@@H](C)CC)NC(=O)[C@H](c2cn(CC)c3ccccc3c2=O)NC1=O,110,0.24,2,>10000,330,
CCC(=O)CCCCC[C@@H]1NC(=O)[C@H]2CCCCN2C(=O)[C@H]([C@@H](C)CC)NC(=O)[C@H](c2cn(OC)c3ccccc3c2=O)NC1=O,62.7,0.04,1,10000,86,
CCC(=O)CCCCC[C@@H]1NC(=O)[C@H]2CCCCN2C(=O)[C@H]([C@@H](C)CC)NC(=O)[C@H](Cc2cn(CC(=O)O)c3ccccc23)NC1=O,99.7,,0.065,,,1
CCC(=O)CCCCC[C@@H]1NC(=O)[C@H]2CCCCN2C(=O)[C@H]([C@@H](C)CC)NC(=O)[C@H](Cc2cn(CC)c3ccccc23)NC1=O,161,0.18,0.01,,,
CCC(=O)CCCCC[C@@H]1NC(=O)[C@H]2CCCCN2C(=O)[C@H]([C@@H](C)CC)NC(=O)[C@H](Cc2cn(C)c3ccccc23)NC1=O,19.7,0.02,0.005,225,,
CCC(=O)CCCCC[C@@H]1NC(=O)[C@H]2CCCCN2C(=O)[C@H]([C@@H](C)CC)NC(=O)[C@H](Cc2cn(OC)c3ccccc23)NC1=O [APICIDIN],,0.057,,78,,
